Structures can show the parent of a compound that is named as a salt. Where two headings read alike, the source gives them in different places.
Columns and labels:
[1] = target: T1, human D4 receptor (D4.2 sub-type) (Homo sapiens, UniProt P21917, DEL271-302); experiment: D4 receptor binding assay (3H-spiperone displacement); settings: for Ki: 3H-spiperone 0.25 nM, HEK cell membranes, human D4.2, read-out: D4 RBA Ki; for inhibition at 1 µM: @ 1 μM test compound, 3H-spiperone binding, read-out: D4 RBA % Inhibition (@ 1 μM)
T1 sequence (P21917 with tags, fused parts or gaps DEL271-302): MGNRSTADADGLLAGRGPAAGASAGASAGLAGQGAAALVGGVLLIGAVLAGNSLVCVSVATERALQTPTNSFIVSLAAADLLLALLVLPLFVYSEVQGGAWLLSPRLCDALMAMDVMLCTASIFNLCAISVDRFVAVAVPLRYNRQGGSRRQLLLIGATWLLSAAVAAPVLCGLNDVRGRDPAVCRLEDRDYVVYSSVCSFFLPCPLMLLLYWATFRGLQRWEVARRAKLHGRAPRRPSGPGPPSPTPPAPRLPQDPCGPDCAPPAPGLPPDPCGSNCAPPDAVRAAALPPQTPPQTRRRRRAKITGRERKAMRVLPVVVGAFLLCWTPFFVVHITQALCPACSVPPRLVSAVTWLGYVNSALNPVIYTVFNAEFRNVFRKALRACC
Description: D4 receptor-binding affinities of the compounds were evaluated according to their ability to reduce binding of ^3H-spiperone as compared to the reference compound clozapine. The potency of the test compound to reduce ^3H-spiperone binding directly correlated to its binding affinity for the receptor.
[…] (human embryonic kidney) cells stably transfected with human D4 receptor (D4.2 sub-type) were grown in NUNC cell factories for 5 days (75% confluency) without a media change and removed with versene (approximately 19 mg of cells per cell factory tray). The cells were then centrifuged in a Sorval centrifuge for 10 min, 5000 rpm (GS3 rotor) and the pellets quickly frozen in liquid nitrogen and stored at −80° C. until used in binding assay. When used in the assay, cells were thawed on ice for 20 min and then 10 mL of incubation buffer (50 mM Tris, 1 mM EDTA, 4 mM MgCl2, 5 mM KCl, 1.5 mM CaCl2, 120 mM NaCl, pH 7.4) was added. The cells were then vortexed to resuspend pellet and homogenized with a Kinematica, CH-6010 Kriens-LU, homogenizer for 15 seconds at setting 7. Concentration of receptor protein was determined using the Pierce BCA assay.
The incubation was started by the addition of 100 μl (50 μg protein) membrane homogenate to a solution of 300 μl incubation buffer and 100 μl (0.25 nM final conc.) ^3H-spiperone (90 Ci/mmol, Amersham, diluted in borosilicate glass vial) in 96-well polypropylene plates (1 mL per well). The plates were vortexed and incubated at room temperature for 90 minutes. The binding reaction was stopped by filtering using a Packard Harvester. The samples were filtered under vacuum over glass fibre filter plates (Whatman GF/B) presoaked for 2 hours in 0.3% polyethylenimine (PEI) in 50 mM Tris buffer (pH 7.4). The filters were then washed 6 times with 7 mL ice cold 50 mM Tris buffer (pH 7.4). The filter plates were dried overnight and 35 μl of Microscint-O (Packard) was added. The plates were sealed and counted in the Packard Top Count (3 minutes per well).
The incubation was started by the addition of 100 μl (50 μg protein) membrane homogenate to a solution of 200 μl incubation buffer, 100 μl ^3H-spiperone (90 Ci/mmol, Amersham, diluted in borosilicate glass vial to 0.25 nM final conc.) and 100 μl (30 μM final conc.) of fresh dopamine (Research Biochemicals Inc., light protected and dissolved in incubation buffer) in 96-well polypropylene plates (1 mL per well). The plates were vortexed and incubated at room temperature for 90 minutes at which time the binding reaction was stopped by filtering. The filters were washed and counted using the same procedure as in the total binding assay described above to give the non-specific binding value (NSB).
The incubation was started by the addition, in 96-well polypropylene plates (1 mL per well), of 100 μl (50 μg protein) membrane homogenate to a solution of 200 μl incubation buffer, 100 μl (0.25 nM final conc.) ^3H-spiperone (90 Ci/mmol, Amersham, diluted in borosilicate glass vial) and 100 μl of test compound that was prepared from 1 mM stock dissolved in DMSO and stored at −20° C. in polypropylene cryogenic storage vials until dilution in incubation buffer in 96-well polypropylene plates. The plates were vortexed and incubated at room temperature for 90 minutes at which time the binding reaction was stopped by filtering. The filters were washed and counted using the same procedure as in the total binding assay described above to give the displacement binding value (BD).
The test compounds were initially assayed at 1 and 0.1 μM and then at a range of concentrations chosen such that the middle dose would cause about 50% inhibition of ^3H-spiperone binding. Specific binding in the absence of test compound (B0) was the difference of total binding (BT) minus non-specific binding (NSB) and similarly specific binding (in the presence of test compound) (B) was the difference of displacement binding (BD) minus non-specific binding (NSB). […]

[2] = test system: CD-1 or C57 male mice (MK-801 induced stereotypy); experiment: MK-801 Stereotypy in Mice; format: in vivo; settings: for inhibition in vivo at 20 mg/kg / ED50: Mus musculus; for inhibition in vivo at 20 mg/kg: read-out: Antag. of MK 801 Stereotypy % Inhib. @ 20 mg/kg; for ED50: MK-801 stereotypy, read-out: In Vivo ED50
Description: Mk-801 dose-dependently induces characteristic stereotypy marked by locomotion and falling behavior. This MK-801 induced behavior can be antagonized by novel neuroleptic agents. This assay can also assess time course effects following drug administration.
CD-1 or C57 male mice are individually placed in activity boxes (8 mice/drug) and allowed to acclimate for 60 minutes. The mice are then administered test compounds either i.p., s.c., or p.o., at 15, 30, or 60 minutes prior to MK-801 (0.2 mg/kg) administration. Mice are observed for the presence of locomotion and falling behaviors 15 minutes following MK-801. For the duration of action studies the test compounds are administered i.p., s.c., or p.o., at 30, 60, 120, 180, and 240 minutes prior to MK-801 administration.

D4.2 variant = settings: read-out: EC50 of dopamine; cited from earlier work
[3] = target: human D4 receptor with seven repeat units (D4.7 variant); settings: read-out: EC50 of dopamine; cited from earlier work

| SMILES | Ki [1] [µM] | inhibition in vivo at 20 mg/kg ([2]; po, 20 mg/kg) [%] | other results |
| --- | --- | --- | --- |
| Fc1ccc(CNCCCOc2cccc(-c3noc4ccsc34)c2)cc1 [Compound 3, (4-fluoro-benzyl)-[3-(3-thieno[2,3-d]isoxazol-3-yl-phenoxy)-propyl]-amine] | 0.017 | 37.5 | – |
| c1cc(OCCCNCc2ccsc2)cc(-c2noc3ccsc23)c1 [Compound 7, [3-(3-thieno[2,3-d]isoxazol-3-yl-phenoxy)-propyl]-thiophen-3-yl-methylamine] | 0.018 | 75 | – |
| c1cnc(N2CCN(CCCOc3cccc(-c4noc5ccsc45)c3)CC2)nc1 [Compound 13, 3-{3-[3-(4-pyrimidin-2-yl-piperazin-1-yl)-propoxy]-phenyl}-thieno[2,3-d]isoxazole] | 0.055 | – | inhibition in vivo at 20 mg/kg ([2]; ip, 20 mg/kg): 37.5% |
| Cc1ccc(CNCCOc2cccc(-c3noc4ccsc34)c2)cc1 [Compound 20, (4-methyl-benzyl)-[2-(3-thieno[2,3-d]isoxazol-3-yl-phenoxy)-ethyl]-amine] | 0.00527 | 37.5 | – |
| Clc1ccc(CNCCOc2cccc(-c3noc4ccsc34)c2)cc1 [Compound 18, (4-chloro-benzyl)-[2-(3-thieno[2,3-d]isoxazol-3-yl-phenoxy)-ethyl]-amine] | 0.034 | 37.5 | – |
| NCCc1ccc(O)c(O)c1 [dopamine] | – | – | EC50 (D4.2 variant): 0.015 µM; EC50 [3]: 0.04 µM |
| Fc1ccc(CNCCOc2cccc(-c3noc4ccsc34)c2)cc1 [Compound 17, (4-fluoro-benzyl)-[2-(3-thieno[2,3-d]isoxazol-3-yl-phenoxy)-ethyl]-amine] | 0.012 | 62.5 | ED50 ([2]; PO): 14.1 mg/kg |
| Cl.c1ccc(CNCCCOc2cccc(-c3noc4ccsc34)c2)cc1 [Compound 1, benzyl-[3-(3-theino[2,3-d]isoxazol-3-yl-phenoxy)-propyl]-amine hydrochloride] | 0.012 | – | ED50 ([2]; PO): 14.6 mg/kg; melting point: 195 to 197 °C |
| c1ccc(CNCCOc2cccc(-c3noc4ccsc34)c2)cc1 [Compound 31, benzyl-[2-(3-thieno[2,3-d]isoxazol-3-yl-phenoxy)-ethyl]-amine hydrochloride] | – | 37.5 | inhibition at 1 µM [1]: 100% |
| Fc1cccc(CNCCOc2cccc(-c3noc4ccsc34)c2)c1.O=C(O)/C=C\C(=O)O [Compound 32, (3-fluoro-benzyl)-[2-(3-thieno[2,3-d]isoxazol-3-yl-phenoxy)-ethyl]-amine maleate] | 0.0105 | – | Antag. of MK 801 Stereotypy % Inhib. @ 20 mg/kg ([2]; PO, 20 mg/kg): 62.5% |
| Fc1cccc(CNCCOc2cccc(-c3noc4ccsc34)c2)c1 [Compound 19, (3-fluoro-benzyl)-[2-(3-thieno[2,3-d]isoxazol-3-yl-phenoxy)-ethyl]-amine] | 0.015 | 75 | – |
| COc1ccc(CNCCCOc2cccc(-c3noc4ccsc34)c2)cc1 [Compound 5, (4-methoxy-benzyl)-[3-(3-thieno[2,3-d]isoxazol-3-yl-phenoxy)-propyl]-amine] | 0.092 | – | – |
| Fc1ccc(N2CCN(CCCOc3cccc(-c4noc5ccsc45)c3)CC2)cc1 [Compound 11, 3-(3-{3-[4-(4-fluoro-phenyl)-piperazin-1-yl]-propoxy}-phenyl)-thieno[2,3-d]isoxazole] | – | – | inhibition at 1 µM [1]: 91% |

Reference: patent publication US7091199B1, “Thienoisoxazole phenoxy unsubstituted ethyl and propyl derivatives useful as d4 antagonists” (Aventis Pharmaceuticals Inc., priority 1999, dated 2006)
